In patent publication US20260355180A1, “COMPOSITIONS AND METHODS FOR SPLICEOSOME-TARGETED THERAPIES” (Institute for Cancer Research d/b/a The Research Institute …, priority 2022, published 2026):
“Also recorded” adds a separate entry of the source.

Assays:
[1] = tested on: H446 SCLC cells; test: Cell survival after PlaB treatment, H446; type: cell-based, human
Experimental: FIG. 2A) SCLC cell lines (H446 and H82) and immortalized fibroblasts (FC1010 and HS68) cell survival curves after 72 hours of PlaB treatment. FIG. 2B) RIPK1 depletion rescues H82 and H446 cell survival after 18 hours of PlaB treatment. FIG. 2C) Western blot showing RIPK1 protein depletion. Mean±SEM, Welch's t test *p<0.05, **p<0.01.
Cancer deregulates splicing^31,32, and we hypothesized that hyper-proliferative SCLCs are dependent on splicing machineries for increased tumorigenicity^90.

[2] = tested on: SCLC cell lines; test: Western blot of cleaved-PARP, pH2AX, ZBP1 and RIPK1 (FIG. 4C); type: cell-based; conditions: 48 hours of PlaB
From the text: FIG. 4A-4C: SF3B1 perturbation increases dsRNA and Z-nucleic acid levels in treated cells. […] (FIG. 4B) Quantification of A-RNA and Z-Nucleic acids. (FIG. 4C) Western blot showing induction of cleaved-PARP, pH2AX, and ZBP1, and the reduction of RIPK1 protein levels. Plots of signal intensity are mean±SEM, two-tailed unpaired Student's t test **p<0.01, ****p<0.0001.

## CCC(O)C(C)C1OC1CC(C)C=CC=C(C)C1OC(=O)CC(O)CCC(C)(O)C(OC(C)=O)C=CC1C (stereo not drawn) [PlaB, Pladienolide B]
[1]; 72 hours of PlaB, H446
  cell survival: drastically reduces cell survival; also recorded: dramatically reduces SCLC cell survival
[1]; nanomolar concentration of PlaB
  sensitivity to SF3B1 inhibition: particularly sensitive
[2]
  RIPK1 protein level: dropped considerably
  ZBP1 protein: increased; also recorded: slight increase
  cleaved-PARP protein: increased
  pH2AX protein: increased
